# Reference: paper PMC10388362, “Fluorescent Ligands Enable Target Engagement Studies for the Intracellular Allosteric Binding Site of the Chemokine Receptor CXCR2” (Journal of Medicinal Chemistry, 2023)
# Several values for one entry are separate records, joined by “and”; a condition that tells them apart may be missing. Equal values may be shown once. Read-outs that look alike come from different tables or passages of the source.
# Columns and labels:
# [1] = target: T1, CXCR2 (Homo sapiens, UniProt P25025); experiment: Membrane-based NanoBRET competition assay with 9a; format: binding; settings: for % comp. @ 70 μM: competitor 70 μM, 9a (50 nM)
# T1 construct: Promega pNLF1-C (Nluc) #CXCR20TN00; host or cells: HEK293T, transient transfection (PEI)
# T1 sequence (P25025 1-360): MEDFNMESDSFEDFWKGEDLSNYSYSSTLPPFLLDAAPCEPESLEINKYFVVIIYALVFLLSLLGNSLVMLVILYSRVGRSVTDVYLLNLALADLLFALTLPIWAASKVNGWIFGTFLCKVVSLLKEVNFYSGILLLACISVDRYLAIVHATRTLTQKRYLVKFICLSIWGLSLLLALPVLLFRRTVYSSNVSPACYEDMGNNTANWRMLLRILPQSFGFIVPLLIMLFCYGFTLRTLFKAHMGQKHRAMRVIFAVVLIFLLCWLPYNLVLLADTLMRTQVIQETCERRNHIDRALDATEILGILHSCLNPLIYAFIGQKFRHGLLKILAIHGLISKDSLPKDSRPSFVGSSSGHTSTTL
# Method: Then, 20 μL of the membrane preparation (diluted in assay buffer, 2 μg total protein/well) was added and the plates were incubated for 90 min at 37 °C. Subsequently, 5 μL of a furimazine solution (final assay dilution: 1:5000 in the assay buffer) was added to each well (final assay volume: 35 μL). […] To determine the inhibition constants (Ki) of the nonlabeled ligands, data were analyzed using the one-site-fit Ki equation in PRISM9.5 (GraphPad).
# [2] = target: T1, CXCR2; experiment: Membrane-based NanoBRET saturation assay (CXCR2_Nluc membranes); format: binding; settings: cell-free
# Method: Membranes from HEK293T cells transiently expressing the respective GPCR were prepared as follows. The medium of the transfected cells was refreshed after 24 h before cells were harvested 48 h post-transfection. The growth medium was removed, and the cells were carefully washed with cold phosphate-buffered saline (10 mL per Ø 15 cm dish). The cells were detached with 15 mL of ice-cold Tris-EDTA buffer (10 mM Tris, 0.5 mM EDTA, 5.4 mM KCl, 140 mM NaCl, pH 7.4) and subsequently centrifuged with 218g for 8 min. The supernatant was removed and the cells were resuspended in 10 mL of Tris-EDTA buffer. The cells were lysed with an Ultraturrax (20,000 rpm) used five times for 5 s with a 25 s break on ice in between. The lysate was centrifuged at 50,830g for 18 min at 4 °C. The supernatant was discarded, and the pellet was homogenized in a membrane buffer (50 mM Tris, 1 mM EDTA, 5 mM MgCl2, 100 μg/mL bacitracin, 5 μg/mL soybean trypsin inhibitor, pH 7.4) with a glass-teflon homogenizer. Aliquots of 250 μL were shock-frozen in liquid nitrogen and directly stored at −80 °C. Finally, the protein concentration was determined using the Lowry method.[43]
# (§1) For the establishment of our NanoBRET binding assay, we referred to a recently published protocol.[45] The fluorescent ligands (9a–c) were dissolved in DMSO (1 mM) and further diluted to varying concentrations in an assay buffer (50 mM Na2HPO4, 50 mM KH2PO4, pH 7.4, 1 mg/mL saponin, 5% FBS) and 5 μL of these dilutions were pipetted to a 384-well plate. To determine the total binding, 5 μL of the assay buffer was added to the corresponding wells, while 5 μL of a solution of 3 in the assay buffer (final assay concentration: 1 μM) was used to determine nonspecific binding. Then, 20 μL of the membrane preparations diluted in the assay buffer (2 μg total protein/well) were added and the plates were incubated for 90 min at 37 °C. Subsequently, 5 μL of a furimazine solution (Promega, Mannheim, Germany, final assay dilution: 1:5000) was added to each well (final assay volume: 35 μL) before measuring luminescence with a CLARIOstar microplate reader using 620/10 and 475/30 nm emission filters after 5 min of incubation in the dark. Bioluminescence resonance energy transfer (BRET) was determined as the ratio of acceptor fluorescence and donor luminescence. The algorithms for one-site saturation binding from PRISM9.5 (GraphPad) were utilized to analyze total, nonspecific, and specific binding. Specific binding signals were calculated as a difference of total and nonspecific binding. If required, netBRET values were calculated as the difference between total BRET values and the values obtained in the absence of a fluorescent ligand. For selectivity studies with CCR2, CCR7, CCR9, and CXCR1, we modified the procedure described above.
# [3] = target: T2, CXCR1 (Homo sapiens, UniProt P25024); experiment: Membrane-based NanoBRET saturation assay, selectivity (CXCR1_Nluc membranes); format: binding; settings: cell-free, CXCR1_Nluc membranes
# T2 construct: host or cells: HEK293T, transient; membrane preparation
# T2 sequence (P25024 1-350): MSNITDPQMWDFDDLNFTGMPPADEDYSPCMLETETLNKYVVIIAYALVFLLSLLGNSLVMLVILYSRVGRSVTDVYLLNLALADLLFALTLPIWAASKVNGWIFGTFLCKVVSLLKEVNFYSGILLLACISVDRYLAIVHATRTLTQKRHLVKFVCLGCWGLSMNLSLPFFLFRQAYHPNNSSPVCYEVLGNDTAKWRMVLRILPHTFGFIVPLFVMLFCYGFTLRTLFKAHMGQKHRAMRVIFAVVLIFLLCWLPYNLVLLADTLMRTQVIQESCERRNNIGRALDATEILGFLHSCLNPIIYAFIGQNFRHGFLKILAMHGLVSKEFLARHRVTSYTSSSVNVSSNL
# Method: as §1
# [4] = target: T1, CXCR2; settings: cited from earlier work
# [5] = target: T1, CXCR2; experiment: Fluorescence microscopy, displacement of 9a in HEK293 cells stably expressing CXCR2; format: cell-based; settings: 9a 500 nM
# Method: For live cell microscopy, HEK293 cells stably expressing CXCR2 were seeded onto poly-D-lysine (PDL)-coated 8-well μ-slides (Ibidi) at a density of 1.5 × 10^5 cells per well and cultured overnight at 37 °C and 5% CO2. […] Afterward, the fluorescent CXCR2 ligand ((9a) final concentration 500 nM) was added for 60 min at 37 °C, and the cells were washed once with PBS before imaging. For immunostaining, the cells were first fixed with 4% paraformaldehyde solution, washed with PBS, and then blocked for 1 h with 10% goat serum and 1% fatty acid-free bovine serum albumin (BSA) in PBS at 37 °C. As primary antibody, anti-CXCR2 mouse IgG (R&D Systems, catalog # 48311, 1:100 in blocking solution) was added, and the cells were incubated for 1 h at 37 °C. After three washes with PBS, goat anti-mouse IgG (H+L) conjugated to FITC (Sigma-Aldrich, catalog # AP124F, 1:500 in blocking solution) was added for 1 h at 37 °C. The cells were again washed three times with PBS and counterstained with 4′,6-diamidin-2-phenylindole (DAPI) solution (0.1 μg/mL) for 15 min in the dark at room temperature, followed by three washes with PBS. […] Afterward, the fluorescent CXCR2 ligand ((9a) final concentration 500 nM) was added for 30 min at 37 °C and the cells were imaged. Microscopy was carried out on an AxioObserver.Z1 microscope (Carl Zeiss, Jena, Germany) equipped with an ApoTome imaging system and a Heating unit XL S using a Plan-Apochromat ×63/1.40 Oil objective (filter set 43 (red), 38 (green), 49 (blue)). Image processing and line scan analysis were performed with Zen blue Imaging software. The fluorescence intensity values were normalized to vehicle control.
# [6] = Ki of nonfluorescent ligands, cell-free, read-out: cell-free Kd or Ki for CXCR2
# [7] = competition with 9a (50 nM), CXCR2_Nluc membranes, read-out: Ki
# [8] = competition with 9a (50 nM), CXCR2_Nluc membranes, read-out: pKi (converted)
# [9] = membranes from HEK293T cells transiently expressing CXCR2_Nluc, read-out: Kd (equilibrium saturation binding)
structure (smiles),measurement,setting,value
O=C(O)c1ccccc1Oc1ccc(Cl)cc1NS(=O)(=O)c1ccc(Cl)c(Cl)c1 [compound 21],Ki,[1]; [6],4900 nM
same,Ki,[1]; [7],≥ 261 nM
same,Ki,[1]; [8],4680 nM
CC(=O)C1=C(O)C(=O)N(c2ccc(Br)cc2F)C1C1CCCCC1 (stereo not drawn) [compound 20],Ki,[1]; [6],2700 nM
same,Ki,[1]; [7],≥ 261 nM
same,Ki,[1]; [8],2630 nM
CC(C)(C)c1ccc(S(=O)(=O)Nc2ccc(Cl)cc2-c2cncnc2N)cc1 [compound 24],Ki,[1]; [7],≥ 261 nM
same,% comp. @ 70 μM,[1]; CXCR2_Nluc membranes,28%
"CC(C)(C)c1ccc(S(=O)(=O)Nc2ccc(Cl)cc2C(=O)c2cc[n+]([O-])cc2)cc1 [compound 23, vercirnon]",cell-free Kd or Ki for CXCR2 [nM],"[1]; Ki of nonfluorescent ligands, cell-free",n.i.
same,Ki,[1]; [7],≥ 261 nM
same,% comp. @ 70 μM,[1]; CXCR2_Nluc membranes,-3%
"COCCn1cc(CNC(=O)c2cccc(Nc3c(N[C@@H](c4ccc(C)o4)C(C)(C)C)c(=O)c3=O)c2O)nn1 [compound 8, (R)-3-((2-((2,2-Dimethyl-1-(5-methylfuran-2-yl)propyl)amino)-3,4-dioxocyclobut-1-en-1-yl)amino)-2-hydroxy-N-((1-(2-methoxyethyl)-1H-1,2,3-triazol-4-yl)methyl)benzamide]",Ki,[1]; [8],0.427 nM
Cc1ccc([C@H](NC2=NS(=O)(=O)N=C2Nc2ccc(C)c(C(=O)N(C)C)c2O)C(C)(C)C)o1 [compound 22],Ki,[1]; [6],261 nM
same,Ki,[1]; [7],≥ 261 nM and 300 nM
same,Ki,[1]; [8],251 nM
"Cc1ccc([C@H](Nc2c(Nc3cccc(C(=O)NCc4cn(CCOCCOCCNC(=O)c5ccc(C(=O)[O-])c(-c6c7ccc(=[N+](C)C)cc-7oc7cc(N(C)C)ccc67)c5)nn4)c3O)c(=O)c2=O)C(C)(C)C)o1 [9b, (R)-4-((2-(2-(2-(4-((3-((2-((2,2-Dimethyl-1-(5-methylfuran-2-yl)propyl)amino)-3,4-dioxocyclobut-1-en-1-yl)amino)-2-hydroxybenzamido)methyl)-1H-1,2,3-triazol-1-yl)ethoxy)ethoxy)ethyl)carbamoyl)-2-(6-(dimethylamino)-3-(dimethyliminio)-3H-xanthen-9-yl)benzoate]",Kd,[2]; [9],4.62 ± 0.87 nM
same,Kd,[3],122 ± 5.6 nM
"O=C(Nc1ccc(Cl)c(S(=O)(=O)N2CCNCC2)c1O)Nc1cccc(F)c1Cl [compound 6, elubrixin]",IC50,[4]; reported value ref 17,22 nM
CC[C@@H](Nc1c(Nc2ccnc(C(=O)N(C)C)c2O)c(=O)c1=O)c1cc(C(C)C)co1 [compound 1],IC50,[4]; reported value ref 4,0.62 nM
"Cc1ccc([C@H](Nc2c(Nc3cccc(C(=O)NCc4cn(CCCNC(=O)c5ccc(-c6c7ccc(=[N+](C)C)cc-7oc7cc(N(C)C)ccc67)c(C(=O)[O-])c5)nn4)c3O)c(=O)c2=O)C(C)(C)C)o1 [9c, (R)-5-((3-(4-((3-((2-((2,2-Dimethyl-1-(5-methylfuran-2-yl)propyl)amino)-3,4-dioxocyclobut-1-en-1-yl)amino)-2-hydroxybenzamido)methyl)-1H-1,2,3-triazol-1-yl)propyl)carbamoyl)-2-(6-(dimethylamino)-3-(dimethyliminio)-3H-xanthen-9-yl)benzoate]",Kd,"[2]; Kd of fluorescent ligands, read-out: cell-free Kd or Ki for CXCR2",2 nM
same,Kd,[2]; [9],2.62 ± 0.78 nM
same,Kd,[3],49.3 ± 0.7 nM
"CC[C@@H](Nc1c(Nc2cccc(C(=O)N(C)C)c2O)c(=O)c1=O)c1ccc(C)o1 [compound 2, navarixin]",effect of preincubation on membrane-associated 9a fluorescence,"[5]; fixed HEK293 cells stably expressing CXCR2, competitor 10 μM",virtually blunted all membrane-associated probe fluorescence
same,effect of preincubation on membrane-based 9a fluorescence,"[5]; live cell imaging, HEK293 cells stably expressing CXCR2, competitor 10 μM",very strong reduction in membrane-based fluorescence
